Test results from ChEMBL document CHEMBL5620403, “Design, synthesis, activity and molecular dynamics studies of 1,3,4-thiadiazole derivatives as selective allosteric inhibitors of SHP2 for the treatment of cancer” (Eur J Med Chem, 2023).
The source made the active and inactive calls. The rule behind the calls is not given here.

What was measured:
MV4-11 [1] = assay: Induction of apoptosis in human MV4-11 cells assessed as necrotic cells at 5 uM measured after 4 hrs by Annexin V-FITC/7-AAD staining based flow cytometric analysis (reference value: 0.068%); type: functional
MV4-11 [2] = assay: Induction of apoptosis in human MV4-11 cells assessed as viable cells at 5 uM measured after 2 hrs by Annexin V-FITC/7-AAD staining based flow cytometric analysis (reference value: 96.8%); type: functional; conditions: read-out: Activity
[3] = target: Tyrosine-protein phosphatase non-receptor type 6 (Homo sapiens, UniProt P29350); assay: Inhibition of full length recombinant human SHP1 (1 to 570 residues) using DIPMUP as substrate preincubated for 30 mins followed by substrate addition and measured after 30 mins by fluorescence based analysis
Chain of Tyrosine-protein phosphatase non-receptor type 6 (P29350 whole entry, the tested form may be a part): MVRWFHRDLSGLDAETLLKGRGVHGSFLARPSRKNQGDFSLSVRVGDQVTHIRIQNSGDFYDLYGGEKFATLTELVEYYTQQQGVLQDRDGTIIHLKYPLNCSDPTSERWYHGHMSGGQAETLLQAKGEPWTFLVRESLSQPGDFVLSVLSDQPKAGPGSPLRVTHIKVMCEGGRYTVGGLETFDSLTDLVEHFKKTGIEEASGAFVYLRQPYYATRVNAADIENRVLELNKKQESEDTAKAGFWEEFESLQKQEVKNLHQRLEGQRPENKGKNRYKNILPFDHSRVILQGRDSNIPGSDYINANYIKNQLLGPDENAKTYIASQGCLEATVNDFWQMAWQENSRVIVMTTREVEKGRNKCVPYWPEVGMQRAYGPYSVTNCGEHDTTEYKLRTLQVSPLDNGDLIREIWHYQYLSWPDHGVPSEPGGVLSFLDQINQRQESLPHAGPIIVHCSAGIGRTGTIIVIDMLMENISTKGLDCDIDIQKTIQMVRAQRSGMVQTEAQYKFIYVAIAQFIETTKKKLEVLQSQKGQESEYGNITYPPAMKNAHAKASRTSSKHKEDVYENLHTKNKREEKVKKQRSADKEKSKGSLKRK

MV4-11 [4] = assay: Induction of apoptosis in human MV4-11 cells assessed as viable cells at 5 uM measured after 1 hrs by Annexin V-FITC/7-AAD staining based flow cytometric analysis (reference value: 96.8%); type: functional; conditions: read-out: Activity
[5] = target: T1, Tyrosine-protein phosphatase non-receptor type 11 (Homo sapiens, UniProt Q06124); assay: Inhibition of full length wild type recombinant human SHP2 (1 to 525 residues) using DIPMUP as substrate preincubated for 30 mins followed by substrate addition and measured after 30 mins by fluorescence based analysis
T1 sequence (Q06124 whole entry): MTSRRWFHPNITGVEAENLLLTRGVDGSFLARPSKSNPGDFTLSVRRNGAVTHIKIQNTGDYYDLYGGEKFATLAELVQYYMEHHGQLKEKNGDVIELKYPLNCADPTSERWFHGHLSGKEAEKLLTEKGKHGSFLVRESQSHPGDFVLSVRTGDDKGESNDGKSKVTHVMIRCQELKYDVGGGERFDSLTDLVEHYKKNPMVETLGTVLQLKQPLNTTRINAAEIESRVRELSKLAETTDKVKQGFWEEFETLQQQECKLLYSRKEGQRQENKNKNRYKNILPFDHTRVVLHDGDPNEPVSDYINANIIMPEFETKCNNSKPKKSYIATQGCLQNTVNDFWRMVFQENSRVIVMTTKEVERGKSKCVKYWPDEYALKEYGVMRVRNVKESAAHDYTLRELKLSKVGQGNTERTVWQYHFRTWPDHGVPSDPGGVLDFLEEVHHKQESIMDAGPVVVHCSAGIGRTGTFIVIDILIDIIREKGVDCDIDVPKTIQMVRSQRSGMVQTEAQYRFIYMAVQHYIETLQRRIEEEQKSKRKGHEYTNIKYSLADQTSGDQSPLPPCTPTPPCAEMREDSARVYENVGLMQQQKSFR

[6] = target: Tyrosine-protein phosphatase non-receptor type 11 (Homo sapiens, UniProt Q06124, E76K); assay: Inhibition of full length recombinant human SHP2 E76K mutant (1 to 525 residues) using DIPMUP as substrate preincubated for 30 mins followed by substrate addition and measured after 30 mins by fluorescence based analysis
Chain of Tyrosine-protein phosphatase non-receptor type 11 (Homo sapiens, UniProt Q06124, E76K) (Q06124 2-593 E76K limits assumed): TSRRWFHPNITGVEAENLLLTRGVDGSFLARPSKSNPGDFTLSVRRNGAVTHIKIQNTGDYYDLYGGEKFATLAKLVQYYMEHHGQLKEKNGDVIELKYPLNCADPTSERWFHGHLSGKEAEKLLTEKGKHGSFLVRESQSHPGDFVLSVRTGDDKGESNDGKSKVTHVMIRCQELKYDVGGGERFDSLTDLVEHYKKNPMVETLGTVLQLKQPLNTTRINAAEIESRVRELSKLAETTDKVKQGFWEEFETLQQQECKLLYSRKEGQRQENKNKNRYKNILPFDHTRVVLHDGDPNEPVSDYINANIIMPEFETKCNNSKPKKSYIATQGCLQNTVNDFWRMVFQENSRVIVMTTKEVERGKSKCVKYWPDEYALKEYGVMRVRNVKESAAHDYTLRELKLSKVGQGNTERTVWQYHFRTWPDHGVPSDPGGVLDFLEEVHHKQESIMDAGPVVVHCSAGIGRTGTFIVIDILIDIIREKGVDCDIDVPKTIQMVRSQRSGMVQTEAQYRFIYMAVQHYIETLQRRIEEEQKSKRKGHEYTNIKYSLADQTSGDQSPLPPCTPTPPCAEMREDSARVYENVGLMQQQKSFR

[7] = target: T2, Tyrosine-protein phosphatase non-receptor type 11 (Homo sapiens) (UniProt Q06124); assay: Inhibition of SHP2 in human NCI-H358 cells assessed as reduction in Akt phosphorylation level at upto 20 uM measured after 8 hrs by Western blot analysis; type: cell-based
T2 sequence (whole entry): T1 sequence (Q06124 whole entry)

NCI-H358 = assay: Antiproliferative activity against human NCI-H358 cells assessed as inhibition of cell growth measured after 72 hrs by CCK8 method; type: functional, cell-based; conditions: NCI-H358, 72 h
MV4-11 [8] = assay: Induction of apoptosis in human MV4-11 cells assessed as early apoptotic cells at 5 uM measured after 1 hrs by Annexin V-FITC/7-AAD staining based flow cytometric analysis (reference value: 2.13%); type: functional
MV4-11 [9] = assay: Induction of apoptosis in human MV4-11 cells assessed as early apoptotic cells at 1.25 uM measured after 4 hrs by Annexin V-FITC/7-AAD staining based flow cytometric analysis (reference value: 2.48%); type: functional
MV4-11 [10] = assay: Induction of apoptosis in human MV4-11 cells assessed as late apoptotic cells at 5 uM measured after 2 hrs by Annexin V-FITC/7-AAD staining based flow cytometric analysis (reference value: 0.98%); type: functional
MV4-11 [11] = assay: Induction of apoptosis in human MV4-11 cells assessed as viable cells at 5 uM measured after 4 hrs by Annexin V-FITC/7-AAD staining based flow cytometric analysis (reference value: 96.8%); type: functional; conditions: read-out: Activity
MV4-11 [12] = assay: Induction of apoptosis in human MV4-11 cells assessed as viable cells at 1.25 uM measured after 4 hrs by Annexin V-FITC/7-AAD staining based flow cytometric analysis (reference value: 95.9%); type: functional; conditions: read-out: Activity
MV4-11 [13] = assay: Induction of apoptosis in human MV4-11 cells assessed as late apoptotic cells at 5 uM measured after 1 hrs by Annexin V-FITC/7-AAD staining based flow cytometric analysis (reference value: 0.98%); type: functional
[14] = target: T1, Tyrosine-protein phosphatase non-receptor type 11; assay: Inhibition of recombinant human SHP2 PTPase activity (219 to 525 residues) using DIPMUP as substrate preincubated for 30 mins followed by substrate addition and measured after 30 mins by fluorescence based analysis
A549 = assay: Antiproliferative activity against human A549 cells assessed as inhibition of cell growth measured after 72 hrs by CCK8 method; type: functional, cell-based; conditions: A549, 72 h
MV4-11 [15] = assay: Induction of apoptosis in human MV4-11 cells assessed as early apoptotic cells at 2.5 uM measured after 4 hrs by Annexin V-FITC/7-AAD staining based flow cytometric analysis (reference value: 2.48%); type: functional
MV4-11 [16] = assay: Induction of apoptosis in human MV4-11 cells assessed as necrotic cells at 5 uM measured after 4 hrs by Annexin V-FITC/7-AAD staining based flow cytometric analysis (reference value: 0.041%); type: functional
MV4-11 [17] = assay: Induction of apoptosis in human MV4-11 cells assessed as necrotic cells at 1.25 uM measured after 4 hrs by Annexin V-FITC/7-AAD staining based flow cytometric analysis (reference value: 0.041%); type: functional
MV4-11 [18] = assay: Induction of apoptosis in human MV4-11 cells assessed as early apoptotic cells at 5 uM measured after 4 hrs by Annexin V-FITC/7-AAD staining based flow cytometric analysis (reference value: 2.13%); type: functional
[19] = Inhibition of full length recombinant human SHP2 E76A mutant (1 to 525 residues) using DIPMUP as substrate preincubated for 30 mins followed by substrate addition and measured after 30 mins by fluorescence based analysis
MV4-11 [20] = assay: Induction of apoptosis in human MV4-11 cells assessed as viable cells at 2.5 uM measured after 4 hrs by Annexin V-FITC/7-AAD staining based flow cytometric analysis (reference value: 95.9%); type: functional; conditions: read-out: Activity
MV4-11 [21] = assay: Induction of apoptosis in human MV4-11 cells assessed as late apoptotic cells at 1.25 uM measured after 4 hrs by Annexin V-FITC/7-AAD staining based flow cytometric analysis (reference value: 1.58%); type: functional
[22] = target: T1, Tyrosine-protein phosphatase non-receptor type 11; assay: Inhibition of full length wild type recombinant human IRS-1 peptide activated SHP2 (1 to 525 residues) using DIPMUP as substrate preincubated for 30 mins followed by substrate addition and measured after 30 mins by fluorescence based analysis
MV4-11 [23] = assay: Induction of apoptosis in human MV4-11 cells assessed as necrotic cells at 5 uM measured after 2 hrs by Annexin V-FITC/7-AAD staining based flow cytometric analysis (reference value: 0.068%); type: functional

`C[C@@H]1OCC2(CCN(c3nnc(Sc4cccc(Cl)c4Cl)s3)CC2)[C@@H]1N` gave an Activity (MV4-11 [1]) of 1.38%, a viability at 5 µM (MV4-11 [2]) of 80.9% and an IC50 [3] of over 50 µM. It also gave a viability at 5 µM (MV4-11 [4]) of 90%, an IC50 [5] of 0.84 µM and an IC50 [6] of 6.88 µM. The inhibition [7] was “Active”, the IC50 (NCI-H358) was 12 µM and the Activity (MV4-11 [8]) was 4.74%. The Activity (MV4-11 [9]) was 2.04%, the Activity (MV4-11 [10]) was 7.03% and the viability at 5 µM (MV4-11 [11]) was 80%. It also gave a viability at 1.25 µM (MV4-11 [12]) of 95.9%, an Activity (MV4-11 [13]) of 4.39% and an IC50 [14] of over 50 µM. For the same molecule, the IC50 (A549) was 12.1 µM, the Activity (MV4-11 [15]) was 2.09% and the Activity (MV4-11 [16]) was 1.55%. For the same molecule, the Activity (MV4-11 [17]) was 0.12%, the Activity (MV4-11 [18]) was 10.8% and the IC50 [19] was 1.38 µM. It also gave a viability at 2.5 µM (MV4-11 [20]) of 96.7%, an Activity (MV4-11 [21]) of 1.93% and an IC50 [22] of 0.25 µM. It also gave an Activity (MV4-11 [23]) of 1.17%.
